# Assay results published in PMC8296985, “A Covalent Calmodulin Inhibitor as a Tool to Study Cellular Mechanisms of K-Ras-Driven Stemness” (Frontiers in Cell and Developmental Biology, 2021).
# What was measured:
# K-RasG12V = K-RasG12V nanoclustering-BRET assay in HEK293-EBNA cells; format: cell-based; settings: 24 h; calmidazolium 20 μM, OphA 2.5 μM, prostratin 10 μM, mevastatin 10 μM, benzazulenones 20 μM
# Procedure: (§1) BRET assays were essentially performed as described by others ([Lavoie et al., 2013]; [Bery et al., 2018]). About 100,00–150,000 HEK293-EBNA ([Meissner et al., 2001]) cells were seeded per well of a 12-well plate in 1 ml of DMEM containing 10% FBS and 2 mM L-glutamine and were grown for 24 h. Next day, Rluc8-tagged donor and GFP2-tagged acceptor constructs were transfected into cells using a jetPRIME transfection reagent (cat. no. 114-75, Polyplus). Each well was transfected with about 1 μg of plasmid DNA using 3 μl of the jetPRIME reagent. For BRET donor saturation titration experiments, the concentration of donor plasmid (25 ng) was kept constant, and the concentration of acceptor plasmid was increased from 0 to 500 ng for RasG12V BRET pairs and 0–1,000 ng for K-Ras/CaM BRET pairs. The empty pcDNA3.1(-) plasmid was used to top-up the total DNA load per transfection. After 24 h of transfection, cells were treated with compounds or vehicle control (DMSO 0.2% v/v in a growth medium) at the specified concentration for 24 h or the stipulated time period in case of the time-course experiments. The cells from one well of a 12-well plate were collected, washed, and re-plated in PBS (cat. no. 14190-094, Gibco, Thermo Fisher Scientific) on flat bottom, white 96-well plates (cat. no. 236108, Nunc, Thermo Fisher Scientific) as four technical replicates containing 90 μl of cell suspension per well. Then fluorescence intensity followed by BRET readings were carried out on a Clariostar (BMG Labtech) plate reader at 25°C. The fluorescence intensity (RFU) of GFP2 was measured with excitation at 405 ± 10 nm and emission 515 ± 10 nm; it is proportional to the acceptor concentration [acceptor]. BRET readings were taken well by well by adding 10 μl of 100 μM coelenterazine 400a (cat. no. C-320, GoldBio), the Rluc8 substrate to each well (final concentration of 10 μM) using the injector present in the plate reader. Luminescence emission intensities were simultaneously recorded at 410 ± 40 nm (RLU, proportional to [donor]) and 515 ± 15 nm (BRET signal).
# (§2) The raw BRET ratio was calculated as the BRET signal measured at 515 nm divided by the emission signal measured at 410 nm (RLU). The BRET ratio was obtained by subtracting the raw BRET ratio by a background BRET signal measured for cells expressing only the donor ([Bacart et al., 2008]) as indicated in the formula below:
# (§3) For BRET donor saturation titration experiments, the BRET ratio was plotted against the [acceptor]/[donor] ratio. Technical repeat data points were averaged, and data points from all biological repeats were collected into one graph for subsequent fitting. The BRET ratio vs. relative expression data were fitted using a binding saturation equation in the Prism (GraphPad) software to obtain BRETmax and BRET50 using the equation y=BRETmax×x/BRET50+x , where x is the relative expression and y is the BRET ratio. BRETmax represents the maximum saturation BRET signal and depends on the structural parameters (distance, orientation) of the BRET complex. BRET50 corresponds to the ratio of the acceptor construct over the donor construct required to attain 50% of the maximum BRET signal and is a measure of the effective relative affinity between the interacting BRET pair ([Marullo and Bouvier, 2007]).
# When applying the DSS analysis to nanoclustering-BRET data, we used mevastatin (10 μM) to obtain the asymptote parameter (a) for the maximal inhibition effect, as it prevents the prenylation of Ras proteins, their plasma membrane trafficking, and therefore nanoclustering. Otherwise, normalized BRET ratio data were converted to % inhibition and then subsequently uploaded onto the Breeze site (see text footnote 1).
# K-RasG12V/CaM = target: T1, K-RasG12V/CaM (Homo sapiens, UniProt P0DP23); experiment: Rluc8-K-RasG12V/GFP2-CaM interaction BRET in HEK293-EBNA cells; format: cell-based; settings: calmidazolium 20 μM, prostratin 20 μM, OphA 5 μM
# T1 construct: expressed in transfected cells; host or cells: HEK293-EBNA
# Procedure: as §1, §2, §3
# HeLa cells = experiment: Centrosome number / multipolar phenotype in synchronized HeLa cells expressing mCherry-CaM; format: cell-based; settings: 2 h; calmidazolium 20 μM, 1 50 μM, with MG132 10 μM
# Procedure: To evaluate the effect of compounds on centrosome numbers during mitosis, HeLa cells were seeded in 6-well plates onto sterile coverslips and cotransfected with 0.5 μg of pmCherry-CaM and 1.5 μg pEGFP-Centrin1 plasmids using 4 μl of jetPRIME. Twenty-four hours after the transfection, cells were synchronized with 60 ng/ml of nocodazole for 16 h. After the removal of nocodazole, the cells were treated with the […] MG132 (10 μM) to block the cells in metaphase and either calmidazolium (20 μM), 1 (50 μM), or DMSO (0.5%) for 2 h. Cells were then fixed with 4% paraformaldehyde in PBS for 10 min at ambient temperature. After washing with PBS-Tween 0.05%, DNA was stained with a 1 μg/ml solution of DAPI diluted in PBS for 10 min. Coverslips were mounted on glass slides using Vectashield, and images were captured on a spinning disk confocal microscope. Images were analyzed with the ImageJ software, and the number of transfected mitotic cells with multipolar and normal bipolar phenotypes was counted (between 35 and 70 cells per test condition). The percentage multipolar vs. bipolar cells was computed to generate the plot using the Prism software.
# CaM = target: CaM; design: method as in Manoharan et al., 2019; settings: ref Manoharan et al., 2019; cited from earlier work
# α-hemoglobin = system: α-hemoglobin; design: method as in earlier work; settings: formyl warhead, ref Center for Drug Evaluation and Research, 2017, Metcalf et al.; cited from earlier work
# H-RasG12V = H-RasG12V nanoclustering-BRET assay in HEK293-EBNA cells; format: cell-based; settings: FTI-277 1 μM, 24 h
# Procedure: BRET assays were essentially performed as described by others ([Lavoie et al., 2013]; [Bery et al., 2018]). About 100,00–150,000 HEK293-EBNA ([Meissner et al., 2001]) cells were seeded per well of a 12-well plate in 1 ml of DMEM containing 10% FBS and 2 mM L-glutamine and were grown for 24 h. Next day, Rluc8-tagged donor and GFP2-tagged acceptor constructs were transfected into cells using a jetPRIME transfection reagent (cat. no. 114-75, Polyplus). Each well was transfected with about 1 μg of plasmid DNA using 3 μl of the jetPRIME reagent. […] Then fluorescence intensity followed by BRET readings were carried out on a Clariostar (BMG Labtech) plate reader at 25°C. The fluorescence intensity (RFU) of GFP2 was measured with excitation at 405 ± 10 nm and emission 515 ± 10 nm; it is proportional to the acceptor concentration [acceptor]. BRET readings were taken well by well by adding 10 μl of 100 μM coelenterazine 400a (cat. no. C-320, GoldBio), the Rluc8 substrate to each well (final concentration of 10 μM) using the injector present in the plate reader. Luminescence emission intensities were simultaneously recorded at 410 ± 40 nm (RLU, proportional to [donor]) and 515 ± 15 nm (BRET signal).
# The raw BRET ratio was calculated as the BRET signal measured at 515 nm divided by the emission signal measured at 410 nm (RLU). […]
smiles,measurement,setting,value
Clc1ccc(C(c2ccc(Cl)cc2)n2cc[n+](CC(OCc3ccc(Cl)cc3Cl)c3ccc(Cl)cc3Cl)c2)cc1 (stereo not drawn) [calmidazolium],K-Ras selective reduction of nanoclustering-BRET (K-Ras vs H-Ras),K-RasG12V,1.5 fold
same,"effect on Rluc8-K-RasG12V/GFP2-CaM BRET signal, single concentration",K-RasG12V/CaM,significantly reduced the BRET signal
same,multipolar phenotype (multiple mCherry-CaM-positive centrosomes),HeLa cells,increased fraction of multipolar cells
same,Kd,CaM,0.0135 µM
CC(C)n1nccc1-c1ncccc1COc1cccc(O)c1C=O [GBT440],k2/Ki,α-hemoglobin,15 × 10^3 M^–1 h^–1
COC(=O)[C@H](CCSC)NC(=O)c1ccc(NC[C@@H](N)CS)cc1-c1ccccc1 [FTI-277],H-Ras selective decrease of nanoclustering-BRET,H-RasG12V,1.4 fold
